Patent publication US12059425B2, “Heterocyclic compounds and uses thereof” (Kumquat Biosciences Inc., priority 2022, dated 2024)

Key:
wildtype K-Ras = molecular target: T1, wildtype K-Ras (Homo sapiens, UniProt P01116); assay: PPI-HTRF assay, wildtype K-Ras / SOS1 interaction; type: biochemical; details: HTRF, K-Ras wt; read-out: PPI-HTRF-5 nM (K-Ras wt IC50)
T1 construct: made in house; host or cells: E. coli, e.g. BL21 (DE3)
In short: (§1)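 GST-tagged K-Ras (G12D, G12V, G12S or wildtype) with anti-GST-Eu(K) donor was mixed with His-hSOS1 and anti-6His-XL665 acceptor in HEPES pH 7.4 buffer with NaCl, DTT, BSA and Igepal. After about 10 min, HTRF was read (ex 337 nm, em 620/665 nm). IC50 came from the 665/620 ratio, with duplicates from 10 μM down to 0.01 μM.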

SW620 cells = assay: Ras cellular assay, cell proliferation SW620; type: cell-based; details: Homo sapiens, SW-620
From the text: (§2) For example, this assay can be also used to assess selective growth inhibition of a mutant Ras protein relative to a wildtype, or relative to a different mutant Ras protein.

A549 cells = assay: Ras cellular assay, cell proliferation A549; type: cell-based; details: Homo sapiens
Experimental: as §2
A549 (ATCC CRL-185) and LS123 (ATCC CRL-255) cell lines comprise a G12S mutation and can be used to assess Ras cellular signaling in vitro, e.g., in response to treatment with a compound described herein. A549 culture medium is prepared with RPMI-1640 and 10% heat-inactivated FBS. LS123 culture medium is prepared with RPMI-1640 and 10% heat-inactivated FBS. A CellTiter-Glo (CTG) luminescent based assay (Promega) is used to assess growth of the cells, as a measurement of the ability of the compounds herein to inhibit Ras signaling in the cells. The cells (e.g., 800 per well) are seeded in their respective culture medium in standard tissue culture-treated 384-well format plates (Falcon #08-772-116) or ultra-low attachment surface 384-well format plates (S-Bio #MS-9384WZ). The day after plating, cells are treated with a dilution series (e.g., a 10 point, 3-fold dilution series) of the compounds herein (e.g., approximately 40 μL final volume per well). Cell viability can be monitored (e.g., approximately 6 days later) according to the manufacturer's recommended instructions, where CellTiter-Glo reagent is added (e.g., approximately 10 μL), vigorously mixed, covered, and placed on a plate shaker (e.g., approximately for 20 min) to ensure sufficient cell lysis prior to assessment of luminescent signal. The IC50 values are determined using the four parameter fit. The resulting IC50 value is a measurement of the ability of the test compound to reduce cell growth of Ras-driven cells (e.g., tumor cell lines) in vitro and/or in vivo.

K-Ras G12V = molecular target: T2, K-Ras G12V (Homo sapiens, UniProt P01116, G12V); assay: PPI-HTRF assay, K-Ras G12V / SOS1 interaction; type: biochemical; details: HTRF, K-Ras G12V; read-out: PPI-HTRF-5 nM (K-Ras G12V IC50)
T2 construct: made in house; host or cells: E. coli, e.g. BL21 (DE3)
T2 sequence (P01116 1-188 isoform P01116-2 G12V): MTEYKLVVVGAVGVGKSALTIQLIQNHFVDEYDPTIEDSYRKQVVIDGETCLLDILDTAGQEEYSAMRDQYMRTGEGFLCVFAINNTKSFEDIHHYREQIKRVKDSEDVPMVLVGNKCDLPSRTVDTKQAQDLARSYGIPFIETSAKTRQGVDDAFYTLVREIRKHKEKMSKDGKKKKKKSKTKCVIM
In short: as §1

K-Ras G12D = molecular target: T3, K-Ras G12D (Homo sapiens, UniProt P01116, G12D); assay: PPI-HTRF assay, K-Ras G12D / SOS1 interaction; type: biochemical; details: HTRF, K-Ras G12D; read-out: PPI-HTRF-5 nM (K-Ras G12D IC50)
T3 construct: made in house; host or cells: E. coli, e.g. BL21 (DE3)
T3 sequence (P01116 1-188 isoform P01116-2 G12D): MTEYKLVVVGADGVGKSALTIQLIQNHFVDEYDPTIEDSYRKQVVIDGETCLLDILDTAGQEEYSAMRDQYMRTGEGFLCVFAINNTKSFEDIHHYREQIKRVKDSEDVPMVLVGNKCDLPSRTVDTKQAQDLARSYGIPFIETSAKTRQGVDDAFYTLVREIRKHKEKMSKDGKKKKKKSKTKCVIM
In short: as §1

K-Ras G12S = molecular target: T4, K-Ras G12S (Homo sapiens, UniProt P01116, G12S); assay: PPI-HTRF assay, K-Ras G12S / SOS1 interaction; type: biochemical; details: read-out: PPI-HTRF-5 nM (K-Ras G12S IC50)
T4 construct: made in house; host or cells: E. coli, e.g. BL21 (DE3)
T4 sequence (P01116 1-188 isoform P01116-2 G12S): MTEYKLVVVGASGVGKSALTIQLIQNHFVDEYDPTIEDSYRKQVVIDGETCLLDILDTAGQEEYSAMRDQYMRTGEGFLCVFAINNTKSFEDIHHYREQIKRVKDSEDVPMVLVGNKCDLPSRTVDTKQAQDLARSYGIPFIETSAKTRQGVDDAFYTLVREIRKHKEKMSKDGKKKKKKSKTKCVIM
In short: as §1

GP2D cells = assay: Ras cellular assay, cell proliferation GP2D; type: cell-based
In short: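 GP2D cells (G12D Ras mutant) seeded (e.g., 800/well) and treated the next day with a dilution series (e.g., 9-point, 3-fold). After approximately 5 days, viability measured by CellTiter-Glo luminescence; IC50 from four-parameter fit.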

T1 sequence (P01116 1-188 isoform P01116-2): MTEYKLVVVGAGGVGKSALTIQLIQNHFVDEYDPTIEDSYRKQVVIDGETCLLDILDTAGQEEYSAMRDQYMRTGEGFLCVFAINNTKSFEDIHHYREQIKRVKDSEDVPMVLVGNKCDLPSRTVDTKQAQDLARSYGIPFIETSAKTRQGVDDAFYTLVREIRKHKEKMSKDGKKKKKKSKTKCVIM

Row | Structure (SMILES) | IC50 (wildtype K-Ras) | IC50 (SW620 cells) | IC50 (A549 cells) | IC50 (K-Ras G12V) | IC50 (K-Ras G12D) | IC50 (K-Ras G12S) | IC50 (GP2D cells)
1 | N#CCC1CCC2COc3c(Cl)c(-c4ccc(F)c5sc(N)c(C#N)c45)c(F)c4nc(OC[C@@]56CCCN5C[C@H](F)C6)nc(c34)N12 (stereo partly drawn) [compound 107, 2-amino-4-(6-chloro-11-(cyanomethyl)-4-fluoro-2-(((2R,7aS)-2-fluorotetrahydro-1H-pyrrolizin-7a(5H)-yl)methoxy)-8a,9,10,11-tetrahydro-8H-pyrrolo[2′,1′:3,4][1,4]oxazepino[5,6,7-de]quinazolin-5-yl)-7-fluorobenzo[b]thiophene-3-carbonitrile] | < 5 µM | < 5 µM | < 5 µM | < 5 µM | < 5 µM | < 5 µM | < 5 µM
2 | CC(=O)N1CC2Oc3c(Cl)c(-c4ccc(F)c5sc(N)c(C#N)c45)c(F)c4nc(OC[C@@]56CCCN5C[C@H](F)C6)nc(c34)N(C)C2C1 (stereo partly drawn) [compound 172, 4-(9-acetyl-6-chloro-4-fluoro-2-(((2R,7aS)-2-fluorotetrahydro-1H-pyrrolizin-7a(5H)-yl)methoxy)-11-methyl-7a,8,9,10,10a,11-hexahydropyrrolo[3′,4′:2,3][1,4]oxazepino [5,6,7-de]quinazolin-5-yl)-2-amino-7-fluorobenzo[b]thiophene-3-carbonitrile] | < 5 µM | > 5 µM | > 5 µM | < 5 µM | < 5 µM | < 5 µM | > 5 µM
3 | CN1c2nc(OC[C@@]34CCCN3C[C@H](F)C4)nc3c(F)c(-c4ccc(F)c5sc(N)c(C#N)c45)c(Cl)c(c23)OCC2CN(C(=O)[C@H]3CN3)CC21 (stereo partly drawn) [compound 124, 2-amino-4-(10-((R)-aziridine-2-carbonyl)-6-chloro-4-fluoro-2-(((2R,7aS)-2-fluorotetrahydro-1H-pyrrolizin-7a(5H)-yl)methoxy)-12-methyl-8a,9,10,11,11a,12-hexahydro-8H-pyrrolo[3′,4′:6,7][1,5]oxazocino[4,3,2-de]quinazolin-5-yl)-7-fluorobenzo[b]thiophene-3-carbonitrile] | < 5 µM | < 5 µM | > 5 µM | < 5 µM | < 5 µM | < 5 µM | < 5 µM
4 | N#Cc1c(N)sc2c(F)ccc(-c3c(Cl)c4c5c(nc(OC[C@@]67CCCN6C[C@H](F)C7)nc5c3F)N3CC5(CCCC3CO4)CN(C(=O)C3CC3(F)F)C5)c12 (stereo partly drawn) [compound 155, 2-amino-4-(3-chloro-1′-(2,2-difluorocyclopropane-1-carbonyl)-1-fluoro-13-(((2R,7aS)-2-fluorotetrahydro-1H-pyrrolizin-7a(5H)-yl)methoxy)-5a,6,7,8-tetrahydro-5H,10H-spiro[azepino[2′,1′:3,4][1,4]oxazepino[5,6,7-de]quinazoline-9,3′-azetidin]-2-yl)-7-fluorobenzo[b]thiophene-3-carbonitrile] | < 5 µM | < 5 µM | < 5 µM | < 5 µM | < 5 µM | < 5 µM | < 5 µM
5 | N#Cc1c(N)sc2c(F)ccc(-c3c(Cl)c4c5c(nc(OC[C@@]67CCCN6C[C@H](F)C7)nc5c3F)N3CCCC[C@@H]3CCO4)c12 [compound 196, 2-amino-4-((6aR)-3-chloro-1-fluoro-13-(((2R,7aS)-2-fluorotetrahydro-1H-pyrrolizin-7a(5H)-yl)methoxy)-6,6a,7,8,9,10-hexahydro-5H-pyrido[11,2′:5,6][1,5]oxazocino[4,3,2-de]quinazolin-2-yl)-7-fluorobenzo[b]thiophene-3-carbonitrile] | < 5 µM | < 5 µM | < 5 µM | < 5 µM | < 5 µM | < 5 µM | < 5 µM
6 | CC1(O)CCN2c3nc(OC[C@@]45CCCN4C[C@H](F)C5)nc4c(F)c(-c5ccc(F)c6sc(N)c(C#N)c56)c(Cl)c(c34)OCC2C1 (stereo partly drawn) [compound 136, 2-amino-4-(3-chloro-1-fluoro-12-(((2R,7aS)-2-fluorotetrahydro-1H-pyrrolizin-7a(5H)-yl)methoxy)-7-hydroxy-7-methyl-5,5a,6,7,8,9-hexahydropyrido[2′,1′:3,4][1,4]oxazepino [5,6,7-de]quinazolin-2-yl)-7-fluorobenzo[b]thiophene-3-carbonitrile] | < 5 µM | < 5 µM | < 5 µM | < 5 µM | < 5 µM | < 5 µM | < 5 µM
7 | N#Cc1c(N)sc2c(F)ccc(-c3c(Cl)c4c5c(nc(OC[C@@]67CCCN6C[C@H](F)C7)nc5c3F)N3CCC[C@@H]3CO4)c12 [compound 144, 2-amino-4-((12aR)-10-chloro-8-fluoro-6-(((2R,7aS)-2-fluorotetrahydro-1H-pyrrolizin-7a(5H)-yl)methoxy)-2,3,12,12a-tetrahydro-1H-pyrrolo[2′,1′:3,4][1,4]oxazepino[5,6,7-de]quinazolin-9-yl)-7-fluorobenzo[b]thiophene-3-carbonitrile] | < 5 µM | < 5 µM | < 5 µM | < 5 µM | < 5 µM | < 5 µM | < 5 µM
8 | N#CCC1CCC2COc3c(Cl)c(-c4ccc(F)c5sc(N)c(C#N)c45)c(F)c4nc(OCC56CCCN5C[C@H](F)C6)nc(c34)N2C1 (stereo partly drawn) [compound 204, 2-amino-4-(6-chloro-11-(cyanomethyl)-4-fluoro-2-(((2R)-2-fluorotetrahydro-1H-pyrrolizin-7a(5H)-yl)methoxy)-8,8a,9,10,11,12-hexahydropyrido[2′,1′:3,4][1,4]oxazepino [5,6,7-de]quinazolin-5-yl)-7-fluorobenzo[b]thiophene-3-carbonitrile] | < 5 µM | < 5 µM | < 5 µM | < 5 µM | < 5 µM | < 5 µM | < 5 µM
9 | N#Cc1c(N)sc2c(F)ccc(-c3c(Cl)c4c5c(nc(OC[C@@]67CCCN6C[C@H](F)C7)nc5c3F)N3CC5(CCCC3CCO4)CN(C(=O)C3CC3(F)F)C5)c12 (stereo partly drawn) [compound 127, 2-amino-4-(3-chloro-1′-(2,2-difluorocyclopropane-1-carbonyl)-1-fluoro-14-(((2R,7aS)-2-fluorotetrahydro-1H-pyrrolizin-7a(5H)-yl)methoxy)-5,6,6a,7,8,9-hexahydro-11H-spiro[azepino[1′,2′:5,6][1,5]oxazocino[4,3,2-de]quinazoline-10,3′-azetidin]-2-yl)-7-fluorobenzo[b]thiophene-3-carbonitrile] | < 5 µM | < 5 µM | > 5 µM | < 5 µM | < 5 µM | < 5 µM | < 5 µM
10 | COCC1CCC2COc3c(Cl)c(-c4ccc(F)c5sc(N)c(C#N)c45)c(F)c4nc(OC[C@@]56CCCN5C[C@H](F)C6)nc(c34)N12 (stereo partly drawn) [compound 138, 2-amino-4-(6-chloro-4-fluoro-2-(((2R,7aS)-2-fluorotetrahydro-1H-pyrrolizin-7a(5H)-yl)methoxy)-11-(methoxymethyl)-8a,9,10,11-tetrahydro-8H-pyrrolo[2′,1′:3,4][1,4]oxazepino[5,6,7-de]quinazolin-5-yl)-7-fluorobenzo[b]thiophene-3-carbonitrile] | < 5 µM | < 5 µM | < 5 µM | < 5 µM | < 5 µM | < 5 µM | < 5 µM
